Measured values taken from patent US20230021483A1, “[…] […] METHOD AND CLASSIFICATION OF PHARMACEUTICAL COMPONENTS BY USING TRANSCRIPTOMES” (National Institutes of Biomedical Innovation, Health and …, priority 2016, published 2023).
Where “and” joins values, the source holds several entries; their conditions need not be identical. Identical values can stand only once.

Tested on: preferentially upregulated genes in LV, SP, LN
Test: Z-score-based differential gene expression analysis (adjuvant group- or adjuvant-associated genes, 40 module mapping, TargetMine annotation)
Type: in vivo, C57BL/6 mice
Conditions: ID
In short: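 Per-sample fold-change values converted to gene-wise z-scores within each organ's data set, then triplicate z-scores summed per adjuvant. Genes with summed score >3 taken as preferentially expressed; gene groups defined by combined per-adjuvant z-score thresholds (z>1 to z>3) specific to each organ.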

Nc1nc2c(ncn2[C@@H]2O[C@@H]3COP(=O)(O)O[C@H]4[C@@H](O)[C@H](n5cnc6c(=O)[nH]c(N)nc65)O[C@@H]4COP(=O)(O)O[C@H]3[C@H]2O)c(=O)[nH]1 [cdiGMP, Cyclic diguanylate monophosphate]
z-score of fold change, 1423028_at Ifna2 (LN, samples x1-x3, Modules 29): 1.076 and 1.31 and 1.58 | z-score of fold change, 1425837_a_at Ccrn4l (LN, samples x1-x3, Modules 29): 1.34 and 1.091 and 1.529 | z-score of fold change, 1436387_at C330006P03Rik///Homer1 (LN, samples x1-x3, Modules 29): 1.372 and 1.437 and 1.158 | z-score of fold change, 1439349_at Sbno2 (LN, samples x1-x3, Modules 29): 1.367 and 1.407 and 1.166 | z-score of fold change, 1444010_at Eif4e (LN, samples x1-x3, Modules 29): 1.659 and 1.049 and 1.227 | z-score of fold change, 1448325_at Ppp1r15a (LN, samples x1-x3, Modules 29): 1.314 and 1.203 and 1.441 | z-score of fold change, 1449311_at Bach1 (LN, samples x1-x3, Modules 29): 1.178 and 1.558 and 1.189 | z-score of fold change, 1450297_at Il6 (LN, samples x1-x3, Modules 29): 1.437 and 0.989 and 1.53 | z-score of fold change, 1455197_at Rnd1 (LN, samples x1-x3, Modules 29): 1.54 and 1.27 and 1.166 | z-score of fold change, 1455899_x_at Socs3 (LN, samples x1-x3, Modules 29): 1.206 and 1.544 and 1.18 | z-score of fold change, 1417252_at Ptgs2 (LN, samples x1-x3, Modules 34): 1.507 and 1.214 and 1.232 | z-score of fold change, 1417263_at Ptgs2 (LN, samples x1-x3, Modules 34): 1.51 and 0.965 and 1.47 | z-score of fold change, 1419132_at Tlr2 (LN, samples x1-x3, Modules 34): 1.576 and 1.128 and 1.246 | z-score of fold change, 1421473_at Il1a (LN, samples x1-x3, Modules 34): 1.525 and 1.178 and 1.257 | z-score of fold change, 1439981_at Tespa1 (LN, samples x1-x3, Modules 35): 1.343 and 1.427 and 1.18 | z-score of fold change, 1441843_s_at 5230400M03Rik (LN, samples x1-x3, Modules 35): 1.442 and 1.354 and 1.171 | z-score of fold change, 1442556_at --- (LN, samples x1-x3, Modules 35): 1.421 and 1.315 and 1.245 | z-score of fold change, 1443414_at C78513 (LN, samples x1-x3, Modules 35): 1.402 and 0.963 and 1.557 | z-score of fold change, 1444598_at --- (LN, samples x1-x3, Modules 35): 1.559 and 1.318 and 1.053 | z-score of fold change, 1445534_at --- (LN, samples x1-x3, Modules 35): 1.345 and 1.515 and 1.078 | z-score of fold change, 1446245_at --- (LN, samples x1-x3, Modules 35): 1.239 and 1.22 and 1.46 | z-score of fold change, 1457944_at --- (LN, samples x1-x3, Modules 35): 1.366 and 1.428 and 1.146 | z-score of fold change, 1458376_at B930025B16Rik (LN, samples x1-x3, Modules 35): 1.188 and 1.502 and 1.273 | z-score of fold change, 1459144_at --- (LN, samples x1-x3, Modules 35): 1.275 and 1.199 and 1.493 | z-score of fold change, 1425687_at Cflar (LN, samples x1-x3, Modules 36): 1.199 and 1.3 and 1.469 | z-score of fold change, 1427736_a_at Ccrl2 (LN, samples x1-x3, Modules 36): 1.328 and 1.075 and 1.554 | z-score of fold change, 1449169_at Has2 (LN, samples x1-x3, Modules 36): 1.306 and 1.158 and 1.458 | z-score of fold change, 1453636_at Pcgf5 (LN, samples x1-x3, Modules 36): 1.332 and 1.143 and 1.496 | z-score of fold change, 1457888_at --- (LN, samples x1-x3, Modules 36): 1.466 and 1.08 and 1.38 | z-score of fold change, 1419508_at Ripk1 (LN, samples x1-x3, Modules 37): 1.035 and 1.437 and 1.467 | z-score of fold change, 1421578_at Ccl4 (LN, samples x1-x3, Modules 37): 1.402 and 1.22 and 1.368 | z-score of fold change, 1421679_a_at Cdkn1a (LN, samples x1-x3, Modules 37): 1.429 and 1.421 and 1.13 | z-score of fold change, 1424638_at Cdkn1a (LN, samples x1-x3, Modules 37): 1.624 and 1.232 and 1.074 | z-score of fold change, 1433508_at Klf6 (LN, samples x1-x3, Modules 37): 1.271 and 1.413 and 1.263 | z-score of fold change, 1434350_at Csrnp1 (LN, samples x1-x3, Modules 37): 1.353 and 1.305 and 1.308 | z-score of fold change, 1439680_at Tnfsf10 (LN, samples x1-x3, Modules 37): 1.169 and 1.36 and 1.399 | z-score of fold change, 1448724_at Cish (LN, samples x1-x3, Modules 37): 1.476 and 1.357 and 1.106 | z-score of fold change, 1451340_at Arid5a (LN, samples x1-x3, Modules 37): 1.5 and 1.292 and 1.161 | z-score of fold change, 1453851_a_at Gadd45g (LN, samples x1-x3, Modules 37): 1.368 and 1.383 and 1.21 | z-score of fold change, 1457404_at Nfkbiz (LN, samples x1-x3, Modules 37): 1.371 and 1.232 and 1.386 | z-score of fold change, 1458589_at --- (LN, samples x1-x3, Modules 37): 1.137 and 1.339 and 1.469 | z-score of fold change, 1422054_a_at 5kil (LN, samples x1-x3, Modules 40): 1.491 and 1.218 and 1.211 | z-score of fold change, 1428735_at Cd69 (LN, samples x1-x3, Modules 40): 1.22 and 1.344 and 1.378 | Adar 1425405_a_at (Group G1, Modules 20) (LV, sample x1): 1.58 | Adar 1434268_at (Group G1, Modules 20) (LV, sample x1): 1.7 | Ddx58 1436562_at (Group G1, Modules 20) (LV, sample x1): 0.94 | Ddx58 1456890_at (Group G1, Modules 20) (LV, sample x1): 1.2 | Eif2ak2 1422005_at (Group G1, Modules 20) (LV, sample x1): 1.02 | G3bp2 1421323_a_at (Group G1, Modules 20) (LV, sample x1): 1.74 | Gm9706///Isg15 1431591_s_at (Group G1, Modules 20) (LV, sample x1): 1.01 | H2-T10///H2-T22///H2-T9 1449875_s_at (Group G1, Modules 20) (LV, sample x1): 1.07 | Ifih1 1426276_at (Group G1, Modules 20) (LV, sample x1): 0.89 | Ifit1 1450783_at (Group G1, Modules 20) (LV, sample x1): 2.21 | Ifit3 1449025_at (Group G1, Modules 20) (LV, sample x1): 1.7 | Irf7 1417244_a_at (Group G1, Modules 20) (LV, sample x1): 0.85 | Irgm1 1418825_at (Group G1, Modules 20) (LV, sample x1): 1.33 | Mndal 1426906_at (Group G1, Modules 20) (LV, sample x1): 1.77 | Pml 1448757_at (Group G1, Modules 20) (LV, sample x1): 1.41 | Pml 1456103_at (Group G1, Modules 20) (LV, sample x1): 1.31
